Results: patent US8629283B2, “Compounds that modulate negative-sense, single-stranded RNA virus replication and uses thereof” (Icahn School of Medicine at Mount Sinai, priority 2008, dated 2014)
Read-outs that look alike come from different tables or passages of the source. Marks after values point to notes of the source that are not given here.

Key:
in vitro [1] = settings: dog
retrovirus MLV = type: cell-based
[2] = tested on: influenza B/Yamagata/88 virus; type: cell-based
influenza A virus (FluA) [3] = experiment: in vitro; settings: human
in vitro [4] = settings: mouse
influenza virus = type: cell-based
VSV = type: cell-based, vesicular stomatitis virus
influenza virus WSN = type: cell-based, influenza A virus
influenza A virus (FluA) [5] = tested on: influenza A virus (FluA)
influenza A virus (FluA) [6] = experiment: microbe, parasite or virus in culture
[7] = tested on: influenza A/Wyoming/03/2003 virus; type: cell-based
[8] = tested on: influenza A/Moscow/10/99 virus; type: cell-based
influenza A/WSN/33 virus [9] = tested on: influenza A/WSN/33 virus
[10] = target: influenza viral RNA polymerase (Influenza A virus, UniProt P03427+P03430+P15659); type: cell-based
H5N1/PR8 virus = type: cell-based, influenza A virus
influenza A/WSN/33 virus [11] = type: cell-based
caspase-3 = settings: human, 6 h
A549 cells = settings: human
in vitro [12] = settings: human
in vitro [13] = settings: human; remark: listed apart in the source
[14] = tested on: host cell replication machinery
[15] = tested on: Newcastle disease virus (NDV/B1); type: cell-based
[16] = tested on: vesicular stomatitis virus (VSV); type: cell-based

Row | SMILES | CC50 (in vitro [1]) [nM] | inhibition of FluB (A549) [2] | selectivity ratio (influenza A virus (FluA) [3]) | CC50 (in vitro [4]) [nM] | effect on entry of influenza virus (influenza virus) | inhibition of FluA (A549) (influenza A virus (FluA) [5]) [%] | inhibition of FluA (HTBE) (influenza A virus (FluA) [5]) [%] | inhibition of FluA (MDCK) (influenza A virus (FluA) [5]) [%] | inhibition of FluA (MEF) (influenza A virus (FluA) [5]) [%] | SI (MDCK) (influenza A virus (FluA) [5]) | IC50 (influenza A virus (FluA) [6]; A549, read-out: IC50 (A549)) [nM] | IC50 (influenza A virus (FluA) [6]; MDCK, read-out: IC50 (MDCK)) [nM] | IC50 (influenza A virus (FluA) [6]; MEF, read-out: IC50 (MEF)) [nM] | IC50 (influenza A virus (FluA) [6]; read-out: IC50 (HTBE)) [nM] | other results
1 | COc1cc2c(O)c3c(c(-c4ccc5c(c4)OCO5)c2cc1OC)C(=O)OC3 [C2, 9-(benzo[d][1,3]dioxol-5-yl)-4-hydroxy-6,7-dimethoxynaphtho[2,3-c]furan-1(3H)-one] | 670 | 63% (A549)* | 82 | 4850 | inhibited | 94.7 | 99.96 | ~87.5 | ~96 | 4 | 1600 | 150 | 340 | 59 | effect on entry of MLV (retrovirus MLV): unaffected; effect on entry of VSV (VSV): inhibited; effect on course of infection (influenza virus WSN): did not affect the course of infection; inhibition of influenza virus replication (influenza A virus (FluA) [5]): up to 3.5 logs; IC50 (influenza A virus (FluA) [6]; read-out: IC50 in HTBE cells): 59 nM
2 | C=C(C)[C@@]12O[C@@]3(c4ccccc4)O[C@@H]1[C@@H]1[C@@H]4O[C@]4(CO)[C@@H](O)[C@]4(O)C(=O)C(C)=C[C@H]4[C@@]1(O3)[C@H](C)[C@H]2OC(=O)/C=C/C=C/c1ccccc1 [mezerein] |  |  |  |  |  |  |  |  |  |  |  |  |  |  | maximum viral titer compared to untreated cells [7]: significant increase; increase of viral titer compared to untreated cells [2]: 8 fold; maximum viral titer compared to untreated cells [8]: significant increase; increase in viral titers in Vero cells (influenza A/WSN/33 virus [9]): 15 fold; increase of viral titer compared to untreated cells (influenza A/WSN/33 virus [9]): 17 fold
3 | NC(=O)c1ncn([C@@H]2O[C@H](CO)[C@@H](O)[C@H]2O)n1 [ribavirin, reference compound] |  |  |  |  |  |  |  |  |  |  |  |  |  |  | inhibition of viral RNA polymerase activity [10]: 90%
4 | NC(=NC(=O)c1nc(Cl)c(N)nc1N)NCc1ccc(Cl)cc1Cl [2′,4′-dichlorobenzamil] |  |  |  |  |  |  |  |  |  |  |  |  |  |  | maximum viral titer compared to untreated cells [7]: significant increase; increase of viral titer compared to untreated cells [2]: 4 fold; maximum viral titer compared to untreated cells [8]: significant increase; increase of viral titer compared to untreated cells (H5N1/PR8 virus): ~20 fold; increase in viral titers in Vero cells (influenza A/WSN/33 virus [9]): 11 fold; increase of viral titer compared to untreated control (influenza A/WSN/33 virus [9]): 10^3 fold; influenza virus growth versus untreated control (influenza A/WSN/33 virus [9]): boost influenza virus replication
5 | NC(=Nc1ccccc1)NC(=O)c1nc(Cl)c(N)nc1N [phenamil] |  |  |  |  |  |  |  |  |  |  |  |  |  |  | HTS result (luciferase signal of influenza mini-genome reporter) (influenza A/WSN/33 virus [11]): increased luciferase signals; increase of viral titer compared to untreated control (influenza A/WSN/33 virus [9]): 16 fold; induction of apoptosis (caspase-3 activity, fluorescence vs untreated cells) (caspase-3): 1.3 fold
6 | Cc1[nH]c2ccc(-c3nnc(SCC(=O)N4CCCC4)o3)cc2c1C [A3, 2-(5-(2,3-dimethyl-1H-indol-5-yl)-1,3,4-oxadiazol-2-ylthio)-1-(pyrrolidin-1-yl)ethanone] | > 100000 | 94% (A549)* | 496 | > 100000 | did not inhibit viral entry | 97 | 99.99 | ~99.6 | ~91.2 | >122 | 540 | 820 | 3600 | 42 | CC10 (A549), concentration of 10% cytotoxicity (A549 cells): 38000 nM; inhibition of viral RNA polymerase activity [10]: up to 99%; inhibition of growth of influenza B virus [2]: about 1.5 logs; CC50 (in vitro [12]): 108000 nM; CC50 at 24 h (in vitro [13]): 268000 nM; Inhibition of FluA (Table 5) (influenza A virus (FluA) [5]): 99.2%*; IC50 (influenza A virus (FluA) [6]; read-out: IC50 in HTBE cells): 42 nM; effect on overall host cell replication machinery (renilla luciferase control plasmid) [14]: not affected
7 | CN(c1nc(-c2ccc(Br)cc2)cs1)C1CCS(=O)(=O)C1 (stereo not drawn) [A35, 4-(4-bromophenyl)-N-methyl-N-(tetrahydro-1,1-dioxido-3-thienyl)-2-thiazolamine] | 26800 | 63% (A549)* | 53 | 96600 | did not affect the entry step | 99.988 | 99.98 | ~75 | ~99.6 | 7 | 2100 | 3910 | 2640 | 1980 | inhibition of NDV [15]: less significant inhibition; CC10 (A549), concentration of 10% cytotoxicity (A549 cells): 11200 nM; inhibition of influenza B virus [2]: less significant inhibition; inhibition of viral replication (influenza virus WSN): 4 logs; inhibition of VSV [16]: less significant inhibition; Inhibition of FluA (Table 5) (influenza A virus (FluA) [5]): 99.99%*; inhibition of FluA (293T) (influenza A virus (FluA) [5]): ~50%; inhibition of FluA (Detroit) (influenza A virus (FluA) [5]): ~95.6%; inhibition of FluA (HUH7.5) (influenza A virus (FluA) [5]): ~98.4%; inhibition of influenza virus replication (influenza A virus (FluA) [5]): up to 4 logs; IC50 (influenza A virus (FluA) [6]; HEK-293T, read-out: IC50 (293T)): 6200 nM; IC50 (influenza A virus (FluA) [6]; Huh7.5, read-out: IC50 (HUH7.5)): 3970 nM; IC50 (influenza A virus (FluA) [6]; read-out: IC50 (Detroit)): 2070 nM
